In patent US20190233884A1 (University of Southern California, priority 2016, published 2019):

Tested on: patients with refractory metastatic colorectal cancer (mCRC)
Experiment: PFS, OS and disease control in the training (evaluation) cohort of refractory mCRC patients receiving TAS-102 (n=52, Japan), by baseline characteristics, SNP genotype and toxicity
Format: in vivo, human
Details: for OS HR (95% CI)‡ / PFS HR (95% CI) ‡: multivariable; for OS HR (95% CI)† / PFS HR (95% CI) †: univariate
Procedure: All patients underwent the treatment in salvage-line setting. […]
(§1) Genomic DNA was extracted from peripheral whole blood in patients of all cohorts using the QIAmp Kit (Qiagen, Valencia, Calif., USA) according to the manufacturer's protocol (www.qiagen.com). The candidate SNPs were genotyped using PCR-based direct DNA sequence analysis by ABI 3100A Capillary Genetic Analyzer and Sequencing Scanner v1.0 (Applied Biosystems). Amplification of extracted DNA was carried out using both forward and reverse primers for each gene polymorphism as shown in Table 1. […] The investigators analyzing SNPs were blinded to the clinical data of the study patients.
The primary endpoint in this study was progression-free survival (PFS), and the secondary endpoints were overall survival (OS) and disease control rate (DCR). PFS was calculated from the date of starting treatment to the first observation of disease progression or death from any cause. If a patient had no disease progression or death, PFS was censored at the date of last follow up. OS was calculated from the date of starting treatment until the date of death from any cause or the date of the last follow-up, at which point OS was censored. The disease control rate (DCR) was defined as the proportion of patients who achieved a stable disease (SD) or […] according to RECISTv1.1. Chi-square test was used to examine the difference in baseline patient characteristics among the three cohorts. Allelic distribution of all SNPs by ethnicity for deviation from Hardy-Weinberg equilibrium and the allelic frequencies of SNPs were tested using the Chi-square tests with one degree of freedom. The associations between candidate SNPs and disease control, and toxicities were examined using contingency tables and Fisher's exact test. The associations of SNPs with PFS and OS were analysed using Kaplan-Meier curves and the log-rank test. Because the true mode of inheritance of candidate SNPs was not established yet, a codominant or dominant genetic model if appropriate was considered.
All patients underwent the treatment in salvage-line setting. […] In all patients, adverse events were graded according to the Common Terminology Criteria for Adverse Events, version 4.0. […]
as §1, with “tested” for “genotyped”, “Biosystems).” for “Biosystems). Amplification of extracted DNA was carried out using both forward and reverse primers for each gene polymorphism as shown in Table 1.”, “data.” for “data of the study patients.”
The primary endpoint in this study was progression-free survival (PFS), and the secondary endpoints were overall survival (OS) and disease control rate (DCR).

Trifluridine/tipiracil [TAS-102]
Disease Control Rate PD: 10 (71%) | Disease Control Rate SD: 4 (29%) | OS median, months (95% CI) (ATR rs2227928 A/A): 5.7 (2.7, 12.4) months | PFS median, months (95% CI) (ATR rs2227928 A/A): 2.1 (1.6, 3.4) months | OS median, months (95% CI) (ATR rs2227928 A/G): 8.1 (4.9, 15.6) months | PFS median, months (95% CI) (ATR rs2227928 A/G): 2.9 (1.6, 3.4) months | OS HR (95% CI)‡ (ATR rs2227928 A/G vs A/A): 0.68 (0.26, 1.74) | PFS HR (95% CI) ‡ (ATR rs2227928 A/G vs A/A): 0.82 (0.41, 1.63) | OS HR (95% CI)† (ATR rs2227928 A/G vs A/A): 0.71 (0.28, 1.78) | PFS HR (95% CI) † (ATR rs2227928 A/G vs A/A): 0.75 (0.38, 1.51) | OS median, months (95% CI) (ATR rs2227928 Any G): 8.3 (6.3, 15.6) months | PFS median, months (95% CI) (ATR rs2227928 Any G): 3.0 (2.1, 3.7) months | OS HR (95% CI)‡ (ATR rs2227928 Any G vs A/A): 0.50 (0.20, 1.27) | PFS HR (95% CI) ‡ (ATR rs2227928 Any G vs A/A): 0.67 (0.35, 1.29) | OS HR (95% CI)† (ATR rs2227928 Any G vs A/A): 0.57 (0.24, 1.40) | PFS HR (95% CI) † (ATR rs2227928 Any G vs A/A): 0.64 (0.33, 1.23) | PFS median, months (95% CI) (ATR rs2227928 G/G): 3.7 (2.1, 6.6) months | OS HR (95% CI)‡ (ATR rs2227928 G/G vs A/A): 0.18 (0.04, 0.93) | PFS HR (95% CI) ‡ (ATR rs2227928 G/G vs A/A): 0.43 (0.17, 1.08) | OS HR (95% CI)† (ATR rs2227928 G/G vs A/A): 0.28 (0.06, 1.31) | PFS HR (95% CI) † (ATR rs2227928 G/G vs A/A): 0.46 (0.19, 1.10) | OS median, months (95% CI) (BRCA1 rs16941 Any C): 8.3 (5.3, 14.8+) months | PFS median, months (95% CI) (BRCA1 rs16941 Any C): 3.0 (2.0, 4.2) months | OS HR (95% CI)‡ (BRCA1 rs16941 Any C vs T/T): 1.14 (0.46, 2.82) | PFS HR (95% CI) ‡ (BRCA1 rs16941 Any C vs T/T): 1.04 (0.54, 2.00) | OS HR (95% CI)† (BRCA1 rs16941 Any C vs T/T): 0.90 (0.38, 2.15) | PFS HR (95% CI) † (BRCA1 rs16941 Any C vs T/T): 0.87 (0.47, 1.64) | PFS median, months (95% CI) (BRCA1 rs16941 C/C): 2.7 (2.0, 4.2) months | OS HR (95% CI)‡ (BRCA1 rs16941 C/C vs T/T): 0.37 (0.05, 3.07) | PFS HR (95% CI) ‡ (BRCA1 rs16941 C/C vs T/T): 1.66 (0.58, 4.74) | OS HR (95% CI)† (BRCA1 rs16941 C/C vs T/T): 0.28 (0.04, 2.20) | PFS HR (95% CI) † (BRCA1 rs16941 C/C vs T/T): 1.06 (0.38, 2.90) | OS median, months (95% CI) (BRCA1 rs16941 T/C): 8.1 (3.4, 14.8+) months | PFS median, months (95% CI) (BRCA1 rs16941 T/C): 3.2 (1.8, 4.6) months | OS HR (95% CI)‡ (BRCA1 rs16941 T/C vs T/T): 1.36 (0.55, 3.40) | PFS HR (95% CI) ‡ (BRCA1 rs16941 T/C vs T/T): 0.94 (0.47, 1.88) | OS HR (95% CI)† (BRCA1 rs16941 T/C vs T/T): 1.13 (0.47, 2.74) | PFS HR (95% CI) † (BRCA1 rs16941 T/C vs T/T): 0.84 (0.43, 1.62) | OS median, months (95% CI) (BRCA1 rs16941 T/T): 6.3 (4.4, 15.6+) months | PFS median, months (95% CI) (BRCA1 rs799917 A/A): 2.7 (2.0, 4.2) months | OS HR (95% CI)‡ (BRCA1 rs799917 A/A vs G/G): 0.37 (0.05, 3.07) | PFS HR (95% CI) ‡ (BRCA1 rs799917 A/A vs G/G): 1.66 (0.58, 4.74) | OS HR (95% CI)† (BRCA1 rs799917 A/A vs G/G): 0.28 (0.04, 2.20) | PFS HR (95% CI) † (BRCA1 rs799917 A/A vs G/G): 1.06 (0.38, 2.90) | OS median, months (95% CI) (BRCA1 rs799917 Any A): 8.3 (5.3, 14.8+) months | PFS median, months (95% CI) (BRCA1 rs799917 Any A): 3.0 (2.0, 4.2) months | OS HR (95% CI)‡ (BRCA1 rs799917 Any A vs G/G): 1.14 (0.46, 2.82) | PFS HR (95% CI) ‡ (BRCA1 rs799917 Any A vs G/G): 1.04 (0.54, 2.00) | OS HR (95% CI)† (BRCA1 rs799917 Any A vs G/G): 0.90 (0.38, 2.15) | PFS HR (95% CI) † (BRCA1 rs799917 Any A vs G/G): 0.87 (0.47, 1.64) | OS median, months (95% CI) (BRCA1 rs799917 G/A): 8.1 (3.4, 14.8+) months | PFS median, months (95% CI) (BRCA1 rs799917 G/A): 3.2 (1.8, 4.6) months | OS HR (95% CI)‡ (BRCA1 rs799917 G/A vs G/G): 1.36 (0.55, 3.40) | PFS HR (95% CI) ‡ (BRCA1 rs799917 G/A vs G/G): 0.94 (0.47, 1.88) | OS HR (95% CI)† (BRCA1 rs799917 G/A vs G/G): 1.13 (0.47, 2.74) | PFS HR (95% CI) † (BRCA1 rs799917 G/A vs G/G): 0.84 (0.43, 1.62) | OS median, months (95% CI) (BRCA1 rs799917 G/G): 6.3 (4.4, 15.6+) months | OS median, months (95% CI) (BRCA2 rs144848 A/A): 8.3 (5.4, 12.4) months | PFS median, months (95% CI) (BRCA2 rs144848 A/A): 2.7 (2.0, 3.4) months | PFS median, months (95% CI) (BRCA2 rs144848 A/C): 3.5 (1.5, 4.9) months | OS HR (95% CI)‡ (BRCA2 rs144848 A/C vs A/A): 0.97 (0.34, 2.76) | PFS HR (95% CI) ‡ (BRCA2 rs144848 A/C vs A/A): 0.82 (0.39, 1.72) | OS HR (95% CI)† (BRCA2 rs144848 A/C vs A/A): 0.91 (0.33, 2.57) | PFS HR (95% CI) † (BRCA2 rs144848 A/C vs A/A): 0.76 (0.37, 1.56) | OS median, months (95% CI) (BRCA2 rs144848 Any C): 8.1 (2.8, 15.6+) months | PFS median, months (95% CI) (BRCA2 rs144848 Any C): 3.3 (1.6, 4.6) months | OS HR (95% CI)‡ (BRCA2 rs144848 Any C vs A/A): 1.14 (0.46, 2.79) | PFS HR (95% CI) ‡ (BRCA2 rs144848 Any C vs A/A): 0.92 (0.48, 1.78) | OS HR (95% CI)† (BRCA2 rs144848 Any C vs A/A): 1.07 (0.44, 2.58) | PFS HR (95% CI) † (BRCA2 rs144848 Any C vs A/A): 0.82 (0.43, 1.54) | OS median, months (95% CI) (BRCA2 rs144848 C/C): 8.1 (2.7, 8.1+) months | PFS median, months (95% CI) (BRCA2 rs144848 C/C): 2.7 (0.9, 6.0+) months | OS HR (95% CI)‡ (BRCA2 rs144848 C/C vs A/A): 1.62 (0.44, 6.02) | PFS HR (95% CI) ‡ (BRCA2 rs144848 C/C vs A/A): 1.28 (0.47, 3.50) | OS HR (95% CI)† (BRCA2 rs144848 C/C vs A/A): 1.48 (0.41, 5.34) | PFS HR (95% CI) † (BRCA2 rs144848 C/C vs A/A): 0.99 (0.38, 2.59) | OS median, months (95% CI) (CHEK2 rs22236142 Any C): 8.3 (5.4, 15.6+) months | PFS median, months (95% CI) (CHEK2 rs22236142 Any C): 2.6 (2.1, 3.4) months | OS HR (95% CI)‡ (CHEK2 rs22236142 Any C vs G/G): 0.66 (0.26, 1.65) | PFS HR (95% CI) ‡ (CHEK2 rs22236142 Any C vs G/G): 1.15 (0.59, 2.22) | OS HR (95% CI)† (CHEK2 rs22236142 Any C vs G/G): 0.84 (0.35, 2.00) | PFS HR (95% CI) † (CHEK2 rs22236142 Any C vs G/G): 1.33 (0.70, 2.50) | OS median, months (95% CI) (CHEK2 rs22236142 C/C): 7.5 (3.3, 15.6+) months | PFS median, months (95% CI) (CHEK2 rs22236142 C/C): 2.7 (1.6, 4.4) months | OS HR (95% CI)‡ (CHEK2 rs22236142 C/C vs G/G): 0.88 (0.28, 2.77) | PFS HR (95% CI) ‡ (CHEK2 rs22236142 C/C vs G/G): 1.18 (0.50, 2.78) | OS HR (95% CI)† (CHEK2 rs22236142 C/C vs G/G): 0.93 (0.31, 2.81) | PFS HR (95% CI) † (CHEK2 rs22236142 C/C vs G/G): 1.15 (0.49, 2.74) | OS median, months (95% CI) (CHEK2 rs22236142 G/C): 8.3 (4.9, 12.4+) months | PFS median, months (95% CI) (CHEK2 rs22236142 G/C): 2.5 (1.8, 3.5) months
